Measurements: patent US10640507B2, “PBD antibacterial agents” (KING'S COLLEGE LONDON, priority 2015, dated 2020)
In brackets after ≈: the same amount, converted by molar mass. Read-outs that look alike come from different tables or passages of the source.

Columns and labels:
[1] = test system: AYE; assay: Effect of efflux pump inhibitors (EPIs) on MIC; assay type: cell-based, A. bauamnnii; conditions: for +PABN MIC: PABN at 25 μg/ml
Protocol: (§1) 1. Grow up cultures of bacterial strains to be tested overnight.
(§2) 2. Dilute down overnight cultures to concentration of 1×10^6 bacteria/ml (OD0.01) in Tryptic soy broth (TSB).
(§3) 3. Add 100 μl of TSB media to column 2-column 12 in 96 well plate (keeping column 1 clear).
(§4) 4. Make up compound to a concentration of 64 μg/ml in water.
(§5) 5. Add 100 μl of antibiotic solution to the 1st and 2nd columns.
(§6) 6. Using a multichannel pipette take 100 μl from the 2nd column wells and pipette into 3rd column wells and repeat down the 96 well plate (remember to include controls i.e. uninfected media and media with no antibiotic).
(§7) 7. To each well (except uninfected control row H) add 50 μl/well of EPI at 4× final concentration in TSB.
(§8) 9. In wells used to test the effect of the EPI carbonyl cyanide 3-chlorophenylhydrazone (CCCP) the CCCP is added at 10 μg/ml final concentration.
(§9) 10. In wells used to test the effect of the EPI phenylalanine-arginine β-naphthylamide (PABN) the PABN is added at 25 μg/ml final concentration.
(§10) 11. In wells used to test the effect of the PABN+Mg, the PABN is added at 25 μg/ml final concentration, with 1 mM MgSO4 in TSB.
(§11) 12. Wrap plate with parafilm to prevent evaporation.
(§12) 13. Leave at desired temperature (37° C. unless specified elsewhere) for 20 hours.
(§13) 14. Next day check plates for growth and measure optical density (i.e. absorbance) at a wavelength of 600 nm (OD600).
(§14) Compound KMR-14-33 was tested against a range of bacterial species using the above protocol. Compound PP-A148 was also tested against a more limited range of bacterial species using the above protocol. For KMR-14-33 measurements were carried out for the compound alone, for the compound plus CCCP, for the compound plus PABN and for the compound plus PABN and plus Mg. For PP-A148 measurements were carried out for the compound alone and for the compound plus PABN.

[2] = test system: NCTC 17978; assay: Effect of efflux pump inhibitors (EPIs) on MIC; assay type: cell-based, A. bauamnnii; conditions: for +PABN MIC: PABN at 25 μg/ml
Protocol: as §1, §2, §3, §4, §5, §6, §7, §8, §9, §10, §11, §12, §13, §14

[3] = test system: K. pneumonia NCTC 13439; assay: General MIC protocol, Gram negative; assay type: cell-based; conditions: Klebsiella pneumoniae, NCTC13439
Protocol: (§15) General Minimum Inhibitory Concentration (MIC) Protocol
as §1, §2, §3
(§16) 4. Make up compound to a concentration of 64 μg/ml in water (or alternatively to twice the chosen maximum concentration to be tested).
as §5
(§17) 6. Using a multichannel pipette take 100 μl from the 2nd column wells and pipette into 3rd column wells and repeat down the 96 well plate (remembering to include controls i.e. uninfected media and media with no antibiotic).
(§18) 7. To each well (except uninfected control row H) add 100 μl of bacterially infected media at a concentration of 1×10^6/ml.
(§19) 8. This dilutes down the concentration of the antibiotic by half (top dose is therefore 32 μg/ml in column 1) and also gives you a starting bacterial concentration of 5×10^5/ml.
(§20) 9. Wrap plate with parafilm to prevent evaporation.
(§21) 10. Leave at desired temperature (37° C. unless specified elsewhere) for 20 hours.
(§22) 11. Next day check plates for growth and measure optical density (i.e. absorbance) at a wavelength of 600 nm (OD600).
(§23) An example of such a plate is shown in FIG. 1 where column A represents wells that receive the top dose 100 μl; column B represents wells that receive the top dose 100 μl+100 μl TSB; and column C represents wells that receive 100 μl TSB. Row H which is marked by a box labelled D represents a blank where the cells receive no bacteria.

[4] = test system: P. aeruginosa PA01; assay: General MIC protocol, Gram negative; assay type: cell-based
Protocol: as §15, §1, §2, §3, §16, §5, §17, §18, §19, §20, §21, §22, §23

[5] = test system: K. pneumonia MGH 78578; assay: General MIC protocol, Gram negative; assay type: cell-based; conditions: Klebsiella pneumoniae, MGH78578
Protocol: as §15, §1, §2, §3, §16, §5, §17, §18, §19, §20, §21, §22, §23

[6] = test system: M6; assay: Effect of efflux pump inhibitors (EPIs) on MIC; assay type: cell-based, K. pneumoniae; conditions: for MIC: Klebsiella pneumoniae; for +PABN MIC: PABN at 25 μg/ml
Protocol: as §1, §2, §3, §4, §5, §6, §7, §8, §9, §10, §11, §12, §13, §14

[7] = test system: NCTC 13368; assay: Effect of efflux pump inhibitors (EPIs) on MIC; assay type: cell-based, K. pneumoniae; conditions: for MIC: Klebsiella pneumoniae; for +PABN MIC: PABN at 25 μg/ml
Protocol: as §1, §2, §3, §4, §5, §6, §7, §8, §9, §10, §11, §12, §13, §14

[8] = test system: EMRSA-15; assay: General MIC protocol, Gram positive panel; assay type: cell-based
Protocol: as §15, §1, §2, §3, §16, §5, §17, §18, §19, §20, §21, §22, §23

[9] = test system: E. faecalis VRE NCTC 12201; assay: General MIC protocol, Gram positive panel; assay type: cell-based
Protocol: as §15, §1, §2, §3, §16, §5, §17, §18, §19, §20, §21, §22, §23

[10] = test system: E. faecium VRE NCTC 12204; assay: General MIC protocol, Gram positive panel; assay type: cell-based
Protocol: as §15, §1, §2, §3, §16, §5, §17, §18, §19, §20, §21, §22, §23

[11] = test system: EMRSA-16; assay: General MIC protocol, Gram positive panel; assay type: cell-based
Protocol: as §15, §1, §2, §3, §16, §5, §17, §18, §19, §20, §21, §22, §23

[12] = test system: E. faecalis VSE NCTC 775; assay: General MIC protocol, Gram positive panel; assay type: cell-based; conditions: Enterococcus faecalis, NCTC775; VSE 775
Protocol: as §15, §1, §2, §3, §16, §5, §17, §18, §19, §20, §21, §22, §23

[13] = test system: methicillin sensitive S. aureus ATTC 9144 (NCTC 6571); assay: General MIC protocol, Gram positive panel; assay type: cell-based; conditions: Staphylococcus aureus, MSSA / NCTC 6571; MSSA 9144
Protocol: as §15, §1, §2, §3, §16, §5, §17, §18, §19, §20, §21, §22, §23

[14] = read-out: Control with no EPI MIC
[15] = no EPI, read-out: Control with no EPI MIC
[16] = Pseudomonas aeruginosa, PA01, PA01
[17] = NCTC13368, read-out: Control with no EPI MIC

Structure (SMILES) | +PABN MIC ([1]; AYE) [µg/mL] | MIC [1, 14] [µg/mL] | +PABN MIC [2] [µg/mL] | MIC [2, 15] [µg/mL] | MIC [3] [µg/mL] | MIC [4, 16] [µg/mL] | MIC [5] [µg/mL] | MIC [6, 14] [µg/mL] | +PABN MIC ([6]; M6) [µg/mL] | MIC [7, 17] [µg/mL] | +PABN MIC ([7]; NCTC 13368) [µg/mL] | MIC [8] [µg/mL] | MIC [9] [µg/mL] | MIC [10] [µg/mL] | MIC [11] [µg/mL] | MIC [12] [µg/mL] | MIC [13] [µg/mL] | other results
COc1cc2c(cc1OCCCC(=O)Nc1cc(C(=O)Nc3ccc4sc(C(=O)N(C)C)cc4c3)n(C)c1)N=C[C@@H]1CCCN1C2=O [KMR-14-33, (S)—N-(2-(dimethylcarbamoyl)benzo[b]thiophen-5-yl)-4-(4-((7-methoxy-5-oxo-2,3,5,11a-tetrahydro-1H-benzo[e]pyrrolo[1,2-a][1,4]-diazepin-8-yl)oxy)butanamido)-1-methyl-1H-pyrrole-2-carboxamide] | 0.125 | 1 (≈ 1.52 µM) | 0.06 | 0.5 (≈ 0.761 µM) | 2 (≈ 3.05 µM) | > 32 | 1 (≈ 1.52 µM) | 1 (≈ 1.52 µM) | 0.125 | 2 (≈ 3.05 µM) | 1 | 0.03 (≈ 0.0457 µM) | 0.03 (≈ 0.0457 µM) | 0.03 (≈ 0.0457 µM) | 0.06 (≈ 0.0914 µM) | 0.03 (≈ 0.0457 µM) | 0.03 (≈ 0.0457 µM) | +PABN + Mg MIC ([1]; AYE, PABN at 25 μg/ml with 1 mM MgSO4): 0.25 µg/mL; MIC ([1]; read-out: +CCCP MIC): 0.125 µg/mL (≈ 0.19 µM); MIC ([2]; CCCP at 10 μg/ml, read-out: +CCCP MIC): 0.25 µg/mL (≈ 0.381 µM); +PABN + Mg MIC ([2]; PABN at 25 μg/ml with 1 mM MgSO4): 0.25 µg/mL; MIC ([4]; PA01, KMR-14-33 alone): > 32 µg/mL; MIC ([6]; read-out: +CCCP MIC): 0.125 µg/mL (≈ 0.19 µM); +PABN + Mg MIC ([6]; M6, PABN at 25 μg/ml with 1 mM MgSO4): 0.25 µg/mL; MIC ([7]; NCTC13368, read-out: +CCCP MIC): 2 µg/mL (≈ 3.05 µM); +PABN + Mg MIC ([7]; NCTC 13368, PABN at 25 μg/ml with 1 mM MgSO4): 0.5 µg/mL
O=C(O)c1cn(C2CC2)c2cc(N3CCNCC3)c(F)cc2c1=O [CIP, ciprofloxacin, reference compound] |  |  |  |  |  |  |  |  |  |  |  |  |  |  |  |  |  | MIC ([3]; K. pneumonia NCTC 13439, read-out: MIC): 8 to 16 µg/mL (≈ 24.1 to 48.3 µM); MIC ([4]; Pseudomonas aeruginosa, PA01, read-out: MIC): 1 µg/mL (≈ 3.02 µM); MIC ([5]; K. pneumonia MGH 78578, read-out: MIC): 1 µg/mL (≈ 3.02 µM)
COc1cc2c(cc1OCCCC(=O)Nc1cc(C(=O)Nc3ccc4oc(C(=O)N5CCSCC5)cc4c3)n(C)c1)N=C[C@@H]1CCCN1C2=O [PP-A148, (S)-4-(4-((7-methoxy-5-oxo-2,3,5,11a-tetrahydro-1H-benzo-[e]pyrrolo[1,2-a][1,4]diazepin-8-yl)oxy)butanamido)-1-methyl-N-(2-(thiomorpholine-4-carbonyl)benzofuran-5-yl)-1H-pyrrole-2-carboxamide] | 0.125 to 0.5 | 2 (≈ 2.86 µM) | 0.125 to 0.5 | 2 (≈ 2.86 µM) | 4 to 8 (≈ 5.72 to 11.4 µM) | 128 (≈ 183 µM) | 4 to 8 (≈ 5.72 to 11.4 µM) | 0.25 to 0.5 (≈ 0.358 to 0.716 µM) | 0.125 | 16 to 32 (≈ 22.9 to 45.8 µM) | 2 to 8 | 2 (≈ 2.86 µM) | 0.25 to 0.5 (≈ 0.358 to 0.716 µM) | 0.01 (≈ 0.0143 µM) | 2 (≈ 2.86 µM) | 1 (≈ 1.43 µM) | 0.5 (≈ 0.716 µM) | MIC ([4]; PA01): >128 µg/mL
